From the supplement of paper PMC13380429

What was measured:
[1] = tested on: A549-ACE2 infected with SARS-CoV-2; assay: cell count relative to DMSO; higher = less toxic; conditions: 24 h
[2] = tested on: Caco-2; assay: cell viability relative to DMSO; higher = less toxic; conditions: 72 h
[3] = tested on: Calu-3; assay: as above; conditions: 72 h
[4] = tested on: HepG2; assay: as above; conditions: 72 h
[5] = tested on: U2OS; assay: as above; conditions: 72 h
[6] = tested on: Vero E6; assay: as above; conditions: 72 h
[7] = tested on: A549-ACE2 infected with SARS-CoV-2; assay: SARS-CoV-2 infection rate relative to DMSO; higher = more infection; conditions: 24 h
[8] = tested on: A549-ACE2; assay: phospholipidosis EC50; higher = less potent phospholipidosis inducer
[9] = tested on: A549-ACE2; assay: drug-induced phospholipidosis relative to tamoxifen; higher = more phospholipidosis
[10] = tested on: A549-ACE2 infected with SARS-CoV-2; assay: morphology score (similarity to uninfected cells); higher = more like uninfected cells; conditions: 24 h
[11] = tested on: Caco-2; assay: relative viability EC50 (midpoint between 100% and the lowest measured viability); higher = less toxic; conditions: 72 h
[12] = tested on: HepG2; assay: as above; conditions: 72 h
[13] = tested on: Vero E6; assay: as above; conditions: 72 h
[14] = tested on: Caco-2; assay: drug sensitivity score (DSS) for viability; higher = more toxic; extreme values may be limits of the assay; conditions: 72 h
[15] = tested on: Calu-3; assay: as above; conditions: 72 h
[16] = tested on: HepG2; assay: as above; conditions: 72 h
[17] = tested on: U2OS; assay: as above; conditions: 72 h
[18] = tested on: Vero E6; assay: as above; conditions: 72 h

c1ccc2c(CCNc3ccc(Nc4ccncc4)cc3)c[nH]c2c1 [serdemetan]
Conditions	SARS-CoV-2 infection rate [%]	cell count [%]	cell viability [%]	morphology score	phospholipidosis EC50 [µM]
[1], 0.3 µM	–	102	–	–	–
[1], 3 µM	–	106	–	–	–
[1], 10 µM	–	115	–	–	–
[1], 30 µM	–	82	–	–	–
[2], 1 nM	–	–	94.1	–	–
[2], 10 nM	–	–	94.2	–	–
[2], 100 nM	–	–	99	–	–
[2], 1000 nM	–	–	92.1	–	–
[2], 10000 nM	–	–	82.8	–	–
[3], 1 nM	–	–	98.5	–	–
[3], 10 nM	–	–	92.3	–	–
[3], 100 nM	–	–	105	–	–
[3], 1000 nM	–	–	92.8	–	–
[3], 10000 nM	–	–	51.7	–	–
[4], 1 nM	–	–	94.8	–	–
[4], 10 nM	–	–	99.5	–	–
[4], 100 nM	–	–	98.6	–	–
[4], 1000 nM	–	–	85.7	–	–
[4], 10000 nM	–	–	45.6	–	–
[5], 1 nM	–	–	98.7	–	–
[5], 10 nM	–	–	97.5	–	–
[5], 100 nM	–	–	100	–	–
[5], 1000 nM	–	–	100	–	–
[5], 10000 nM	–	–	52.1	–	–
[6], 1 nM	–	–	93.1	–	–
[6], 10 nM	–	–	101	–	–
[6], 100 nM	–	–	97.4	–	–
[6], 1000 nM	–	–	93.5	–	–
[6], 10000 nM	–	–	87.9	–	–
[7], 0.3 µM	106	–	–	–	–
[7], 3 µM	72	–	–	–	–
[7], 10 µM	22	–	–	–	–
[7], 30 µM	43	–	–	–	–
[8], 24 h	–	–	–	–	3.5
[8], 48 h	–	–	–	–	3.63
[10], 0.3 µM	–	–	–	-0.18	–
[10], 3 µM	–	–	–	0.58	–
[10], 10 µM	–	–	–	0.82	–
[10], 30 µM	–	–	–	0.17	–

drug-induced phospholipidosis [%], [9]
Conditions	0.3 µM	0.833333 µM	3.33333 µM	6.66667 µM	10 µM	30 µM
24 h	0.45	0.3	12.7	59.1	43.6	17.2
48 h	-0.34	-2.16	8.14	56.1	35.4	–
72 h	-1.75	-1.63	6.6	–	–	–

Conditions	drug sensitivity score	relative viability EC50 [µM]
[11]	–	> 10
[12]	–	1.51
[13]	–	> 10
[14]	0.8	–
[15]	3.7	–
[16]	5.1	–
[17]	2.5	–
[18]	0.1	–
